Results: patent US10647708B2, “Tetrahydroisoquinoline derived PRMT5-inhibitors” (CTXT PTY LTD, priority 2014, dated 2020)

These molecules were tested against Full-length PRMT5 enzyme co-expressed with MEP50 (Homo sapiens (Human), UniProt O14744) (assay: Revised PRMT5 Biochemical Assay). Conditions: 1 μM peptide substrate, 1 μM S-Adenosyl methionine, 4 hours at 37 degree Celsius, Transcreener EPIGEN fluorescence polarisation.
Experimental: Compounds of the invention may be tested for in vitro activity in the following assay: A histone H4 derived peptide is used as substrate (amino acid sequence: […]NH2). Full-length PRMT5 enzyme (NCBI Reference sequence NP_006100.2) was co-expressed with Hiss-MEP50 in insect cells and purified via Nickel immobilized metal affinity and gel filtration chromatography (“the enzyme”).
The 6 μL reactions are run in Greiner brand black 384-well low volume assay plates. All reactions contained assay buffer (phosphate buffered saline, 0.01% (v/v) Tween-20, 0.01% (w/v) albumin from chicken egg white, 1 mM Dithiothreitol, 1 μM peptide substrate, 1 μM S-Adenosyl methionine, and 15 ng/reaction enzyme, with the enzyme being omitted from negative control reactions. Compounds were added in a volume of 100 nL from dilution series prepared in DMSO, positive and negative control reactions receiving the same volume DMSO without compound. The plates were sealed with adhesive seals and incubated for 4 hours at 37 degree Celsius. Reaction progress was measured using the Transcreener™ EPIGEN methyltransferase assay (BellBrook Labs, Madison, Wis.) as recommended by the manufacturer. To each reaction 2 μL detection mix were added, containing coupling enzymes, fluorescence polarisation tracer, and AMP antibody. Plates were incubated for 90 minutes before being read on a PerkinElmer EnVision™ plate reader in fluorescence polarisation mode. IC50 values were obtained from the raw readings by calculating percent inhibition (% I) for each reaction relative to controls on the same plate (% I=(I−CN)/(CP−CN) where CN/CP are the averages of the negative/positive reactions, respectively), then fitting the % I data vs. compound concentration [I] to % I=(A+((B−A)/(1+((C/[I])^D)))) where A is the lower asymptote, B is the upper asymptote, C is the IC50 value, and D is the slope.

Chain of Full-length PRMT5 enzyme co-expressed with MEP50 (O14744 whole entry): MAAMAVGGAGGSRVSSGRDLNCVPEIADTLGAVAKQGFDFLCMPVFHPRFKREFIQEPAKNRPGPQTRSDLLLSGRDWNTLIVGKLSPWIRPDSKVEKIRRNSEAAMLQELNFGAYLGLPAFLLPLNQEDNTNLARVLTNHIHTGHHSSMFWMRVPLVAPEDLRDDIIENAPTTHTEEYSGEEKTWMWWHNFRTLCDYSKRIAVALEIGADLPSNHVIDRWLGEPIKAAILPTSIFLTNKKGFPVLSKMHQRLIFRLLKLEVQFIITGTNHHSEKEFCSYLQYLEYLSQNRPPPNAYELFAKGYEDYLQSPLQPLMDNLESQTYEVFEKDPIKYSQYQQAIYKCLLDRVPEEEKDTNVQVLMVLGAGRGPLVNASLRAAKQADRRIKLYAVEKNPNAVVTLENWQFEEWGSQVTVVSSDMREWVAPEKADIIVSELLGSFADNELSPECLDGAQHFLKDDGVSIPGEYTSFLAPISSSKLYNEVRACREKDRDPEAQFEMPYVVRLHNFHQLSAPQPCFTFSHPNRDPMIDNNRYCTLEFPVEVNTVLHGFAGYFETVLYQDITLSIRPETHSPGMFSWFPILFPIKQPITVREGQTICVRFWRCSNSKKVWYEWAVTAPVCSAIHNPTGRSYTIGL
Chain of Full-length PRMT5 enzyme co-expressed with MEP50 (Q9BQA1 whole entry partner): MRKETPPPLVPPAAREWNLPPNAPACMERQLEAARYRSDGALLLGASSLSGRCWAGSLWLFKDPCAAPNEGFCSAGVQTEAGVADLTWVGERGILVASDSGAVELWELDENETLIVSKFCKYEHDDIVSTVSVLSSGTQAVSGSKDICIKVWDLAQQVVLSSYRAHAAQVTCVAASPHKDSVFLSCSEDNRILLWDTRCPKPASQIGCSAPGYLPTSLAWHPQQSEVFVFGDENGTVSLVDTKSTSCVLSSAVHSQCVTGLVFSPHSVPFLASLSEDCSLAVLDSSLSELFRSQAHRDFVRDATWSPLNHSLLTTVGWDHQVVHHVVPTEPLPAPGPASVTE

Compound	IC50 [µM]
Cc1cccc(C(=O)NCCC(O)CN2CCc3ccccc3C2)n1 (stereo not shown) [Compound 24]	25.4
COc1ccc(C(=O)NCCC(O)CN2CCc3ccccc3C2)cc1-c1cncnc1 (stereo not shown) [Compound 27]	5.62
O=C(NCCC(O)CN1CCc2ccccc2C1)c1ccn(Cc2ccccc2)c(=O)c1 (stereo not shown) [Compound 12]	1.59
O=C(NCCC(O)CN1CCc2ccccc2C1)c1coc(-c2ccccc2)n1 (stereo not shown) [Compound 35]	1.21
O=C(NCCC(O)CN1CCc2ccccc2C1)c1ccc(OC(F)(F)F)cc1 (stereo not shown) [Compound 19]	0.319
Cn1ccc(C(=O)NCCC(O)CN2CCc3ccccc3C2)cc1=O (stereo not shown) [Compound 29]	10.8
O=C(NCCC(O)CN1CCc2ccccc2C1)c1cncc(Cl)n1 (stereo not shown) [Compound 43]	106
O=C(NCCC(O)CN1CCc2ccccc2C1)c1ccc(OC(F)F)cc1 (stereo not shown) [Compound 21]	0.415
O=C(NCCC(O)CN1CCc2ccccc2C1)c1ccc([S+]([O-])C(F)(F)F)cc1 (stereo not shown) [Compound 3]	0.925
C[S+]([O-])c1ccc(C(=O)NCCC(O)CN2CCc3ccccc3C2)cc1 (stereo not shown) [Compound 26]	3.75
O=C(NCCC(O)CN1CCc2ccccc2C1)c1ccc(C(F)(F)F)cc1 (stereo not shown) [Compound 5]	1.33
COc1ccc(-c2cc(C(=O)NCCC(O)CN3CCc4ccccc4C3)on2)cc1 (stereo not shown) [Compound 8]	3.09
O=C(NCCC(O)CN1CCc2ccccc2C1)c1cccc(Cl)c1 (stereo not shown) [Compound 18]	9.79
O=C(NCCC(O)CN1CCc2ccccc2C1)c1cnn(-c2ccccn2)c1 (stereo not shown) [Compound 28]	12.3
O=C(NCCC(O)CN1CCc2ccccc2C1)c1cccnc1 (stereo not shown) [Compound 17]	15
O=C(NCCC(O)CN1CCc2ccccc2C1)c1ccc2c(c1)OC(F)(F)O2 (stereo not shown) [Compound 23]	1.69
Cc1nnc(-c2ccc(C(=O)NCCC(O)CN3CCc4ccccc4C3)cc2)o1 (stereo not shown) [Compound 42]	2.83
Cc1nonc1COc1ccc(C(=O)NCCC(O)CN2CCc3ccccc3C2)cc1 (stereo not shown) [Compound 10]	3.98
Cc1c(C(=O)NCCC(O)CN2CCc3ccccc3C2)cnn1-c1ccccn1 (stereo not shown) [Compound 33]	7.45
CC(=O)N1CCC(Nc2cc(C(=O)NCCC(O)CN3CCc4ccccc4C3)ccn2)CC1 (stereo not shown) [Compound 46]	0.186
O=C(NCCC(O)CN1CCc2ccccc2C1)c1ccnc(Cl)c1 (stereo not shown) [Compound 44, 2-Chloro-N-(4-(3,4-dihydroisoquinolin-2(1H)-yl)-3-hydroxybutyl)isonicotinamide]	13.7
O=C(NCCC(O)CN1CCc2ccccc2C1)c1ccc2oc(=O)[nH]c2c1 (stereo not shown) [Compound 9]	4.35

Compound	IC50 [µM]
CN(C)C(=O)c1ccc(C(=O)NCCC(O)CN2CCc3ccccc3C2)cc1 (stereo not shown) [Compound 32]	3.54
O=C(NCCC(O)CN1CCc2ccccc2C1)c1ccc(C(=O)N2CCC2)cc1 (stereo not shown) [Compound 31]	3.16
Cn1cc(-c2cc(C(=O)NCCC(O)CN3CCc4ccccc4C3)no2)cn1 (stereo not shown) [Compound 37]	1.19
O=C(NCCC(O)CN1CCc2ccccc2C1)c1ccc(N2CCCCC2=O)cc1 (stereo not shown) [Compound 6]	13.1
O=C(NCCC(O)CN1CCc2ccccc2C1)c1noc(-c2ccccc2)n1 (stereo not shown) [Compound 34]	56.1
O=C(NCCC(O)CN1CCc2ccccc2C1)c1ccc(-c2ccccc2)cc1 (stereo not shown) [Compound 40]	0.769
O=C(NCCC(O)CN1CCc2ccccc2C1)c1ccc(S(=O)(=O)C(F)(F)F)cc1 (stereo not shown) [Compound 2]	1.13
Cc1nnc(-c2cccc(C(=O)NCCC(O)CN3CCc4ccccc4C3)c2)o1 (stereo not shown) [Compound 39]	1.22
O=C(NCCC(O)CN1CCc2ccccc2C1)c1cccc(C(=O)N2CCOCC2)c1 (stereo not shown) [Compound 45, N-(4-(3,4-dihydroisoquinolin-2(1H)-yl)-3-hydroxybutyl)-3-(morpholine-4-carbonyl)benzamide]	5.23
O=C(NCCC(O)CN1CCc2ccccc2C1)c1ccc(C(=O)N2CCCC2)cc1 (stereo not shown) [Compound 30]	3.12
O=C(NCCC(O)CN1CCc2ccccc2C1)c1ccc(N2CCOCC2)nc1 (stereo not shown) [Compound 14]	0.91
O=C(NCCC(O)CN1CCc2ccccc2C1)c1cccc(-c2ccnnc2)c1 (stereo not shown) [Compound 25]	6.35
CS(=O)(=O)c1ccc(C(=O)NCCC(O)CN2CCc3ccccc3C2)cc1 (stereo not shown) [Compound 22]	7.02
Cc1nn(C)cc1-c1cc(C(=O)NCCC(O)CN2CCc3ccccc3C2)no1 (stereo not shown) [Compound 36]	1.2
COc1ccc(-n2cc(C(=O)NCCC(O)CN3CCc4ccccc4C3)cn2)cc1 (stereo not shown) [Compound 7]	1.94
O=C(NCCC(O)CN1CCc2ccccc2C1)c1cccc(-c2ccccc2)c1 (stereo not shown) [Compound 41]	5.29
N#Cc1cccc(C(=O)NCCC(O)CN2CCc3ccccc3C2)c1 (stereo not shown) [Compound 16]	13
CS(=O)(=O)c1ccccc1OCC(=O)NCCC(O)CN1CCc2ccccc2C1 (stereo not shown) [Compound 4]	51.7
O=C(NCCC(O)CN1CCc2ccccc2C1)c1ccnn1-c1cccnc1 (stereo not shown) [Compound 38]	2.88
Cc1c(C(=O)NCCC(O)CN2CCc3ccccc3C2)cnn1-c1ccncc1 (stereo not shown) [Compound 13]	7.09
O=C(NCCC(O)CN1CCc2ccccc2C1)c1ccc(S(F)(F)(F)(F)F)cc1 (stereo not shown) [Compound 20]	0.214
O=C(NCCC(O)CN1CCc2ccccc2C1)c1nnc(-c2ccccc2)o1 (stereo not shown) [Compound 11]	39.2

The molecules below were run on symmetrical dimethylation of arginine (Histone H4 Arginine 3) in cell line TE11 (assay: Revised PRMT5 Biomarker Assay). Conditions: Homo sapiens, TE-11; TE11 cells, 72 hours incubation, anti-Di-Methyl Histone H4 Arginine 3 immunofluorescence, plate-reader based.
Assay type: cell-based
Experimental: Compounds of the invention may be tested for potency to inhibit symmetrical dimethylation of arginine in the following assay:
The cell line TE11 was seeded at a density of 6,000 cells per well in 96 well optical quality tissue culture plates in DME medium and 10% foetal bovine serum, and allowed to adhere for 5 hours under standard culture conditions (37 degree Celsius, 5% CO2). Compound dilutions prepared in DMSO were added to the medium, with negative control wells reserved for treatment with DMSO only and positive controls receiving a potent PRMT5 inhibitor compound at 1 μM concentration. After incubation for 72 hours, the cells were fixed with 3.7% formaldehyde in PBS for 30 minutes at room temperature, washed with phosphate buffer saline and blocked with Odyssey blocking buffer (LI-COR, Lincoln, Nebr.). Rabbit anti-Di-Methyl Histone H4 Arginine 3 specific antibody (Epigentek) in Odyssey blocking buffer was added and incubated for 14 hours at 4 degree Celsius. After washing, anti-rabbit secondary antibody labelled with Alexa647 dye (LifeTechnologies) and Hoechst 33342 (1 μg/mL, SigmaAldrich) were added for 1 hour incubation. Plates were washed and read on a PerkinElmer Envision 2103 in fluorescence intensity scanning mode (24 scans across the well area). The methylation level information was corrected for the number of cells as expressed by the Hoechst 33342 stain, converted to percent inhibition relative to controls on the same plate and the data fitted against a four-parameter logistic model to determine the 50% inhibitory concentration (IC50 plate-reader based). Alternatively, the plates were imaged on a PerkinElmer Phenix high content imaging platform. Using a Columbus image analysis pipeline, individual nuclei were located by Hoechst 33342 stain and the methylation level was calculated from the Alexa647-related intensity in the same area. The resulting mean intensity per cell was directly converted to percent inhibition as outlined above (IC50, imager based)).

Compound	IC50 [µM]
O=C(NCCC(O)CN1CCc2ccccc2C1)c1ccc(OC(F)(F)F)cc1 (stereo not shown) [Compound 19]	0.089
O=C(NCCC(O)CN1CCc2ccccc2C1)c1ccc(-c2ccccc2)cc1 (stereo not shown) [Compound 40]	0.048
Cc1nn(C)cc1-c1cc(C(=O)NCCC(O)CN2CCc3ccccc3C2)no1 (stereo not shown) [Compound 36]	0.023
O=C(NCCC(O)CN1CCc2ccccc2C1)c1ccc(S(F)(F)(F)(F)F)cc1 (stereo not shown) [Compound 20]	0.505

Same assay, conditions: TE11 cells, 72 hours incubation, anti-Di-Methyl Histone H4 Arginine 3 immunofluorescence, plate-reader based

Compound	IC50 [µM]
CC(=O)N1CCC(Nc2cc(C(=O)NCCC(O)CN3CCc4ccccc4C3)ccn2)CC1 (stereo not shown) [Compound 46]	0.007
